Entries after “also recorded” stand apart in the source; their conditions may differ.
Legend:
[1] = tested on: human immortalized keratinocyte (HaCaT) non-tumor cells; assay: CCK-8 cell proliferation and cytotoxicity assay, HaCaT; assay type: cell-based
Description: I. Cell lines and cell culture. Human melanoma A375 tumor cells and human immortalized keratinocyte (HaCaT) non-tumor cells were obtained from Nanjing Pusheng Biomedical Technology Co., Ltd. (Nanjing, China). The cells (A375/HaCaT) were cultured in Dulbecco’s modified Eagle’s medium (DMEM, Gibco, New York, NY, USA) supplemented with 10% (v/v) fetal bovine serum (FBS, Gibco, New York, NY, USA), and incubated at 37 °C with 5% CO2 in a humidified incubator.
II. Cell viability assay. Cell proliferation and cytotoxicity assays were conducted using the Cell counting kit-8 (CCK-8) on A375 and HaCaT cells. Briefly, the cells were initially seeded in 96-well plates at a density of 4 × 10^4 cells per well and incubated for 24 h at 37 °C with 5% CO2 in a humidified incubator. Each treatment was performed in six duplicate wells. The tested compounds were added at various concentrations, and the cells were then incubated for 72 h. Following the incubation period, CCK-8 solution (Dojindo Laboratories, Kumamoto, Japan) was added to each well, and the plates were further incubated for 2 h. The absorbance of each well at 450 nm was measured using an absorbance microplate reader (BioTek ELx800, Winooski, VT, USA). The assay included negative controls in which cells were treated with ultrapure water and positive controls in which cells were treated with 10 µg·mL^−1 taxol. The percentage of cell growth inhibition was calculated using the following Equation (3). (3) Cell growth inhibition rate [%]=B1−B2/B1−B3×100 where B1 represents the absorbance of a mixture containing cells, medium, and CCK-8 solution, B2 represents the absorbance of a mixture containing cells, medium, CCK-8 solution, and the test compound; and B3 represents a mixture containing medium and CCK-8 solution.

[2] = target: T1, Mushroom tyrosinase (mTyr) (Agaricus bisporus, UniProt C7FF04); details: substrate L-DOPA; previous experiments; Liu et al., 2023; read-out: IC50, diphenolase activity of mTyr; cited from earlier work
T1 construct: purchased Sigma-Aldrich

zebrafish = tested on: zebrafish; parameters: method as in PMID 24498931; details: live zebrafish model; cited from earlier work
[3] = target: T1, Mushroom tyrosinase (mTyr); assay: mTyr inhibition kinetics (Lineweaver-Burk); assay type: biochemical
Description: The mTyr inhibition kinetics of 6′-O-caffeoylarbutin were studied using a method similar to the previously reported procedure for determining the inhibitory activity of 6′-O-caffeoylarbutin on mTyr.
I. Enzyme inhibition mechanism study. For the investigation of the enzyme inhibition mechanism, L-DOPA was used at a final concentration of 0.5 mmol·L^−1, and the mTyr was set at final concentrations of 8.1, 32.5, and 65.0 U·mL^−1. The rate of change of optical density (OD) at 490 nm was measured for various concentrations of 6′-O-caffeoylarbutin (ranging from 10 to 100 μM). A graph was plotted to depict the relationship between the rate of change of OD values and the mTyr concentration under the influence of different concentrations of 6′-O-caffeoylarbutin.
II. Enzyme inhibition type study. To determine the enzyme inhibition type, L-DOPA was used with final concentrations of 0.2, 0.5, 0.6, and 0.8 mmol·L^−1, while mTyr was used at a final concentration of 31.25 U·mL^−1. The rate of change of OD at 490 nm was measured for various concentrations of 6′-O-caffeoylarbutin (ranging from 0 to 100 μM). A reciprocal plot was generated using the rate of change of OD values and L-DOPA concentration. The inhibition constants were obtained based on the inhibition type of 6′-O-caffeoylarbutin on mTyr using quadratic plotting of the 6′-O-caffeoylarbutin concentration and the slope and vertical intercept of the line in the Lineweaver_Burk double reciprocal plot and Dixon plot.

T1 sequence (C7FF04 1-392): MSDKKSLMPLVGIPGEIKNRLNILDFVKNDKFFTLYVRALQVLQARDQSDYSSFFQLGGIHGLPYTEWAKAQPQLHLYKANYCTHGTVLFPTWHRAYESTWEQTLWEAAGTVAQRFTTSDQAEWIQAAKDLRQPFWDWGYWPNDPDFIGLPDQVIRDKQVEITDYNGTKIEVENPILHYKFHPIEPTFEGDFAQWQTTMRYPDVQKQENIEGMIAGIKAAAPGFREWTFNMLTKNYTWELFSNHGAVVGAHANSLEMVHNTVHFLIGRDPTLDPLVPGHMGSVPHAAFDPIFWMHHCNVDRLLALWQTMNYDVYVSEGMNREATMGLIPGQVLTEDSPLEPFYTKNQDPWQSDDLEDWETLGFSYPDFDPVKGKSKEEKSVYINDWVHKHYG

O=C(C=Cc1ccc(O)c(O)c1)OCC1OC(Oc2ccc(O)cc2)C(O)C(O)C1O (stereo not shown) [6′-O-caffeoylarbutin]
inhibition rate ([1]; 3.125–100 μg∙mL^−1, 72 h): below 3% | inhibition at 200 µg/mL ([1]; Homo sapiens, 200 μg∙mL^−1, 72 h, read-out: inhibition rate): 3.6% | inhibition at 400 µg/mL ([1]; Homo sapiens, 400 μg∙mL^−1, 72 h, read-out: inhibition rate): 14.5% | IC50 ([1]; Homo sapiens, 72 h, CCK-8): > 400 µg/mL | IC50 [2]: 95.2 µM | inhibitory effect on melanin production relative to beta-arbutin (zebrafish): approximately two-fold higher; also recorded: approximately twice as potent as that of beta-arbutin | toxicity level relative to beta-arbutin (zebrafish): around half that of beta-arbutin | inhibition type on mTyr ([3]; Lineweaver-Burk, substrate L-DOPA): competitive inhibition | Ki ([3]; binding to free enzyme, substrate L-DOPA, read-out: inhibition constant (Ki) on mTyr): 1.34 ± 0.92 µM | reversibility of mTyr inhibition ([3]; rate vs enzyme concentration, 10-100 μM inhibitor, L-DOPA 0.5 mmol·L^−1): reversible
